# Reference: publication PMC6316490, “Synthesis and Antiproliferative Activity of Marine Bromotyrosine Purpurealidin I and Its Derivatives” (Marine Drugs, 2018)
# What was measured:
# [1] = Cytotoxicity in Hs27 cells, CellTiter-Glo ATP viability, 48-h incubation; assay type: cell-based; conditions: human, Hs27 normal skin fibroblast cells, Hs27 normal fibroblasts
# Procedure: (§1) Human malignant melanoma cell line A-375 was kindly provided by Prof. Marikki Laiho (University of Helsinki, Finland) and Hs27 human skin fibroblast cell line was kindly provided by Dr. Carmen Escobedo-Lucea (University of Helsinki, Finland). The cells were maintained in Glutamax high glucose Dulbecco’s Modified Eagle’s Medium (DMEM, Gibco), supplemented with 10% fetal bovine serum (FBS, Gibco), at 37 °C, 5% CO2.
# (§2) The cells were seeded to white frame and clear bottom 96-well plates (Perkin Elmer) at the density of 10,000 cells/well for A-375 cell line and 7500 cells/well for Hs27 cell line. The cells were grown at 37 °C, 5% CO2 until they reached 70–80% confluence (approximately 24 h). Stock solutions of test compounds and a positive control (camptothecin, Sigma-Aldrich, Saint Louis, MO, USA) were prepared in DMSO and diluted into assay medium (growth medium with 5% FBS) to the final concentration. Final DMSO concentration was 0.5% in all samples. The culture medium was removed from the plate and compounds added, 200 µL/well. After 48-h incubation, the amount of ATP, which is directly proportional to the number of cells present in culture, was quantified using CellTiter-Glo® Luminescent Cell Viability kit (Promega, Madison, WI, USA), according to manufacturer’s instructions.
# (§3) Origin Graphing and Analysis, version 8.6 (OriginLab, Northampton, MA, USA) was used for determination of CC50 values. The cancer cell selectivity index (SI) was calculated as a ratio of CC50 values between Hs27 fibroblasts and A-375 melanoma cells.
# [2] = system: human malignant melanoma cell line (A-375); assay: Cytotoxicity in A-375 cells, CellTiter-Glo ATP viability, 48-h incubation; assay type: cell-based; conditions: for CC50 / cytotoxicity at 50 µM: Homo sapiens, 48 h; for CC50: A-375, 48 h, cytotoxic concentration that caused death of 50% cells; for CC50 / cytotoxicity at 50 µM / Cytotoxic activity in A-375 cells (in words): A-375 cells; for cytotoxicity at 50 µM: read-out: Primary Test Result (Cytotoxicity % at 50 µM in A-375 Cells); for Selectivity Index: ratio of CC50 in Hs27 fibroblasts over CC50 in A-375 melanoma cells; for Cytotoxic activity in A-375 cells (in words): SAR discussion
# Procedure: as §1, §2, §3
# [3] = system: A2780S, A2780CP (SCP5), A549, MCF7, U251MG cells and NIH3T3; set-up: method as in PMID 26711149; conditions: cited from earlier work
# [4] = system: human cervical carcinoma HeLa cells; set-up: method as in doi:10.1016/j.tetlet.2010.07.016; conditions: cited from earlier work
SMILES,CC50 at 48 h [1],CC50 [2],cytotoxicity at 50 µM [2],Selectivity Index [2],other results
"COc1c(Br)cc(C/C(=N\O)C(=O)Nc2ccc(Cl)c(C(F)(F)F)c2)cc1Br [Compound 32, (E)-N-[4-Chloro-3-(trifluoromethyl)phenyl]-3-(3,5-dibromo-4-methoxyphenyl)-2-(hydroxyimino) propanamide]",12 µM,10.3 µM,99.8%,1.2,–
"COc1c(Br)cc(C/C(=N\O)C(=O)Nc2ccccn2)cc1Br [Compound 36, (E)-3-(3,5-Dibromo-4-methoxyphenyl)-2-(hydroxyimino)-N-(pyridin-2-yl)propanamide]",19.4 µM,4.7 µM,84.7%,4.1,melting point: 192 to 196 °C (dec.)
"COc1c(Br)cc(C/C(=N\O)C(=O)Nc2ccc(Cl)c(Cl)c2)cc1Br [Compound 30, (E)-3-(3,5-Dibromo-4-methoxyphenyl)-N-(3,4-dichlorophenyl)-2-(hydroxyimino)propanamide]",15.2 µM,13.1 µM,101%,1.2,melting point: 198 °C (dec.)
"COc1c(Br)cc(C/C(=N\O)C(=O)Nc2cccnc2)cc1Br [Compound 37, (E)-3-(3,5-Dibromo-4-methoxyphenyl)-2-(hydroxyimino)-N-(pyridin-3-yl)propanamide]",–,26.4 µM,83.5%,–,–
"COc1ccc(C/C(=N\O)C(=O)NCc2ccc(Cl)c(Cl)c2)cc1 [Compound 43, (E)-N-(3,4-Dichlorobenzyl)-2-(hydroxyimino)-3-(4-methoxyphenyl)propanamide]",–,–,21.5%,–,–
"COc1ccc(NC(=O)/C(Cc2cc(Br)c(OC)c(Br)c2)=N/O)cc1Cl [Compound 33, (E)-N-(3-Chloro-4-methoxyphenyl)-3-(3,5-dibromo-4-methoxyphenyl)-2-(hydroxyimino)propanamide]",26.4 µM,13.5 µM,98.9%,2.0,–
"COc1c(Br)cc(C/C(=N\O)C(=O)NCc2ccc(Cl)c(Cl)c2)cc1Br [Compound 31, (E)-3-(3,5-Dibromo-4-methoxyphenyl)-N-(3,4-dichlorobenzyl)-2-(hydroxyimino)propanamide]",22.3 µM,12.4 µM,99.7%,1.8,–
"COc1c(Br)cc(C/C(=N\O)C(=O)Nc2cc(Cl)cc(Cl)c2)cc1Br [Compound 35, (E)-3-(3,5-Dibromo-4-methxyphenyl)-N-(3,5-dichlorophenyl)-2-(hydroxyimino)propanamide]",12.2 µM,9.6 µM,101%,1.3,–
"COc1ccc(C/C(=N\O)C(=O)Nc2ccccn2)cc1Cl [Compound 45, (E)-3-(3-Chloro-4-methoxyphenyl)-2-(hydroxyimino)-N-(pyridin-2-yl)propanamide]",–,–,4%,–,Cytotoxic activity in A-375 cells (in words) [2]: inactive
"COc1ccc(C/C(=N\O)C(=O)Nc2ccc(OC)c(Br)c2)cc1Br [Compound 41, (E)-N,3-Bis(3-bromo-4-methoxyphenyl)-2-(hydroxyimino)propanamide]",–,19.8 µM,99.2%,–,Cytotoxic activity in A-375 cells (in words) [2]: showed activity
"COc1ccc(NC(=O)/C(Cc2cc(Br)c(OC)c(Br)c2)=N/O)cc1Br [Compound 34, (E)-N-(3-Bromo-4-methoxyphenyl)-3-(3,5-dibromo-4-methoxyphenyl)-2-(hydroxyimino)propanamide]",22.5 µM,16.2 µM,100%,1.4,–
"COc1c(Br)cc(C/C(=N\O)C(=O)Nc2ccc(N(C)C)cc2)cc1Br [Compound 40, (E)-3-(3,5-Dibromo-4-methoxyphenyl)-N-[4-(dimethylamino)phenyl]-2-(hydroxyimino)propanamide]",–,27.8 µM,99.1%,–,–
"CNCCCOc1c(Br)cc(CCNC(=O)/C(Cc2cc(Br)c(OC)c(Br)c2)=N/O)cc1Br [Compound 1, (E)-N-[3,5-Dibromo-4-[3-(methylamino)propoxy]phenethyl]-3-(3,5-dibromo-4-methoxyphenyl)-2-(hydroxyimino)propenamide]",5.2 µM,4.3 µM,97.9%,1.2,Cytotoxicity against various cancer cell lines and non-cancer NIH3T3 (in words) [3]: cytotoxic; Selectivity between A-375 and Hs27 (in words) ([2]; A-375 vs Hs27): no selectivity
"COc1ccc(C/C(=N\O)C(=O)Nc2ccccn2)cc1Br [Compound 42, (E)-3-(3-Bromo-4-methoxyphenyl)-2-(hydroxyimino)-N-(pyridin-2-yl)propanamide]",–,–,2.7%,–,melting point: 214 to 217 °C (dec.); Cytotoxic activity in A-375 cells (in words) [2]: inactive
"COc1c(Br)cc(C/C(=N\O)C(=O)NCCc2cc(Br)c(OCCCN(C)C)c(Br)c2)cc1Br [Compound 29, (E)-N-[3,5-Dibromo-4-[3-(dimethylamino)propoxy]phenethyl]-3-(3,5-dibromo-4-methoxyphenyl)-2-(hydroxyimino)propanamide]",4.5 µM,6.3 µM,99.9%,0.7,–
"COc1c(Br)cc(C/C(=N\O)C(=O)NCc2cccnc2)cc1Br [Compound 39, (E)-3-(3,5-Dibromo-4-methoxyphenyl)-2-(hydroxyimino)-N-(pyridin-3-ylmethyl)propanamide]",–,22.1 µM,93.2%,–,Cytotoxic activity in A-375 cells (in words) [2]: retained the activity
"COc1c(Br)cc(C/C(=N\O)C(=O)Nc2ccncc2)cc1Br [Compound 38, (E)-3-(3,5-Dibromo-4-methoxyphenyl)2-(hydroxyimino)-N-(pyridin-4-yl)propanamide]",–,–,71.1%,–,–
COc1c(Br)cc(C/C(=N\O)C(=O)NCCc2cc(Br)c(OCCCN)c(Br)c2)cc1Br [Compound 3],–,–,–,–,Cytotoxic effect on HeLa cells (in words) [4]: comparably strong cytotoxic effect
COc1c(Br)cc(C/C(=N\O)C(=O)NCCc2cc(Br)c(O)c(Br)c2)cc1Br [Compound 4],–,–,–,–,Cytotoxic effect on HeLa cells (in words) [4]: comparably strong cytotoxic effect
"COc1ccc(C/C(=N\O)C(=O)Nc2ccccn2)cc1 [Compound 44, (E)-2-(Hydroxyimino)-3-(4-methoxyphenyl)-N-(pyridin-2-yl)propanamide]",–,–,0.4%,–,Cytotoxic activity in A-375 cells (in words) [2]: inactive
"CC[C@@]1(O)C(=O)OCc2c1cc1n(c2=O)Cc2cc3ccccc3nc2-1 [Camptothecin, reference compound]",5.54 µM,0.06 µM,94.7%,92.3,–
